Patent publication US20240374546A1, “USES AND METHODS FOR PROMOTING INCREASED MITOCHONDRIAL MASS AND FUNCTION” (Brightseed, Inc., priority 2022, published 2024)
“Also recorded” adds a separate entry of the source.

Legend:
[1] = Liver profile analysis of blood (VetScan); type: in vivo, mouse
Experimental: Mice were anesthetized and 100 μL of whole blood was collected via retro-orbital bleeding in lithium heparin blood collection tubes and transferred to single use VetScan mammalian liver profile reagent rotors. The levels of multiple analytes, including Alkaline Phosphatase (ALP), Alanine Aminotransferase (ALT), Gamma Glutamyl Transferase (GGT), Bile Acids (BA), TBIL (Total Bilirubin), Albumin (ALB), Blood Urea Nitrogen […] (BUN), Total Cholesterol (CHOL) were quantified using a VetScan VS2 Chemistry Analyzer (Abaxis North America, USA).

[2] = Overall tolerability across studies (maximum tolerated dose, two-week IP, long term oral); type: in vivo; conditions: short-term maximum tolerated dose study, two-week IP 200 mg/kg bid, long term oral administration
Excerpt: Given the chronic nature of disorders of lipotoxicity, the lack of discernable toxicity of NCT is critical, but this will obviously require additional investigation in human clinical trials.

PPARGC1A (PGC1α) mRNA = assay: RNA-seq of livers of mice treated for 2 weeks with NCT; type: in vivo, mouse; conditions: livers of mice treated for 2 weeks (GEO 174848)
Excerpt: The ability of NCT to increase mitochondrial mass raised the question of the mechanism by which that occurred. […] PPARGC1A plays an important role in mitochondrial biogenesis but is not known to be regulated by HNF4α. […]

TNFα mRNA = assay: qPCR mouse liver, TNFα mRNA; type: in vivo; conditions: HFD+NCT vs HFD
Experimental: (§1) Total RNA was isolated from liver tissues and primary human hepatocytes using Trizol (Invitrogen). cDNA was amplified using 3 μg of total RNA using qScript cDNA SuperMix (Quanta BioSciences, Beverly, MA, USA). Quantitative real time PCR (RT-PCR) analysis was performed using SYBR® Select Master Mix (Applied Biosystems) and an ABI 7900HT thermal cycler (Applied Biosystems, Thermo Fisher Scientific). Ct values were normalized to 18s rRNA and are expressed as fold change over samples from mice fed NC or cultured human hepatocytes without NCT.

cytochrome C mRNA = assay: qPCR primary human hepatocytes, cytochrome C mRNA; type: cell-based; conditions: NCT 5, 15, 40 μM
Experimental: (§2) Experiments with primary human hepatocytes were performed by CN-Bio (Cambridge, UK). Briefly, primary human hepatocytes (PHHs), human Kupffer cells (HKs) and human stellate cells (HSCs) were seeded onto CN-Bio's PhysioMimix LC12 MPS culture plates at 6×10^5 cells for PHHs and 6×10^4 cells for HKs and HSCs in 1.6 ml of CN-Bio's HEP-lean media with 5% FCS. Throughout the experiment the cells were maintained at a flow rate of 1 μl/s. After 24 hours (Day 1) of seeding, the media was changed to HEP-lean media and the cells were incubated until day 4 to allow the cells to form microtissues. At day 4 post seeding, media was changed to HEP-fat media and treated with DMSO or NCT (5, 15, 40 μM). Media was replaced on days 6 and 8. Cells were harvested on day 10 for RNA extraction and culture media was collected for ELISA analysis.
as §1

SDHA mRNA = assay: qPCR primary human hepatocytes, SDHA mRNA; type: cell-based; conditions: NCT 5, 15, 40 μM
Experimental: as §2, §1

PPARGC1A mRNA = assay: qPCR primary human hepatocytes, PPARGC1A mRNA; type: cell-based; conditions: NCT 5, 15, 40 μM
Experimental: as §2, §1

[3] = Triglyceride analysis in liver, serum and stool; type: in vivo, mouse; conditions: HFD+NCT vs HFD
Experimental: The TG level in mouse liver, serum and stool was measured according to manufacturer's instructions using the Triglyceride Calorimetric Assay Kit (Cat #10010303, Cayman Chemicals, USA). Liver and stool TG was normalized with liver and stool weight, respectively. Fold change was calculated by normalizing to values from mice fed NC.

cleaved caspase3 = assay: Cleaved caspase3 immunostaining; type: in vivo, mouse; conditions: mice fed HFD with vs without NCT
Experimental: Frozen liver sections were permeabilized using 0.3% Triton-X and incubated in antigen retrieval solution (Antigen retrieval citrate, Biogenex) at sub-boiling temperature for 10 min. Subsequently, sections were incubated with blocking buffer containing 5% normal donkey serum (Jackson Immuno Research) followed by incubation overnight at 4° C. with mouse anti-HNF4α monoclonal antibody (1:800, Cat #PP-H1415-00, R&D Systems), rabbit polyclonal anti-VDAC antibody (1:400, cat #PA1-954A, Invitrogen) and cleaved caspase3 antibody (1:500, cat #9664, Cell Signaling). Sections were washed and incubated for 1 hour at room temperature with anti-mouse secondary antibody coupled with Alexa fluor 488 (1:400, Invitrogen) and antirabbit secondary antibody coupled with rhodamine red. Nuclei were visualized by counterstaining with DAPI (40,6-diamidino-2-phenylindole, Sigma Aldrich). Slides were mounted using fluorescence mounting medium and images were obtained at 40× magnification using an Olympus IX71 fluorescence microscope. Fluorescence intensity of HNF4α-stained nuclei and VDAC stained mitochondria was calculated using MetaMorph TL software (version 7.6.5.0, Olympus). Fold change was calculated by normalizing to values from mice fed NC. […]

VDAC1 = assay: VDAC-1 immunostaining of liver sections; type: in vivo, mouse; conditions: HFD+NCT vs HFD
Experimental: Frozen liver sections were permeabilized using 0.3% Triton-X and incubated in antigen retrieval solution (Antigen retrieval citrate, Biogenex) at sub-boiling temperature for 10 min. Subsequently, sections were incubated with blocking buffer containing 5% normal donkey serum (Jackson Immuno Research) followed by incubation overnight at 4° C. with mouse anti-HNF4α monoclonal antibody (1:800, Cat #PP-H1415-00, R&D Systems), rabbit polyclonal anti-VDAC antibody (1:400, cat #PA1-954A, Invitrogen) and cleaved caspase3 antibody (1:500, cat #9664, Cell Signaling). Sections were washed and incubated for 1 hour at room temperature with anti-mouse secondary antibody coupled with Alexa fluor 488 (1:400, Invitrogen) and antirabbit secondary antibody coupled with rhodamine red. Nuclei were visualized by counterstaining with DAPI (40,6-diamidino-2-phenylindole, Sigma Aldrich). Slides were mounted using fluorescence mounting medium and images were obtained at 40× magnification using an Olympus IX71 fluorescence microscope. Fluorescence intensity of HNF4α-stained nuclei and VDAC stained mitochondria was calculated using MetaMorph TL software (version 7.6.5.0, Olympus). Fold change was calculated by normalizing to values from mice fed NC.

IL-6 = assay: ELISA for IL-6 secreted into medium of primary human hepatocytes; type: cell-based; conditions: NCT 5, 15, 40 μM
Experimental: as §2

total cellular NAD = assay: Total NAD level in liver lysate; type: in vivo, mouse; conditions: HFD+NCT vs HFD
Experimental: Total NAD level in liver lysate was analyzed according to manufacturer's instructions using a calorimetric NAD+/NADH assay kit (Cat #MET-5014, Cell Biolabs, Inc. USA)

Sirt3 mRNA = assay: qPCR mouse liver, Sirtuin3 mRNA; type: in vivo; conditions: HFD+NCT vs HFD
Experimental: as §1

## O=C(/C=C/c1ccc(O)c(O)c1)NCCc1ccc(O)cc1 [NCT, N-transcaffeoyltyramine]
[1]; HFD versus HFD+NCT
  other components of the liver profile panel: no difference
[1]; HFD+NCT vs HFD
  blood ALP: unchanged
  blood ALT level: reduced; also recorded: significantly decreased
[2]
  deleterious effects / toxicity: not seen any deleterious effects
PPARGC1A (PGC1α) mRNA
  increase in PPARGC1A (PGC1α) mRNA: approximately 6 fold
TNFα mRNA
  TNFα mRNA in mouse liver: significantly reduced
Cytochrome C mRNA
  cytochrome C mRNA in primary human hepatocytes: but not cytochrome C
SDHA mRNA
  SDHA mRNA in primary human hepatocytes: increased
PPARGC1A mRNA
  PPARGC1A mRNA in primary human hepatocytes: increased
[3]; normalized to liver weight
  hepatic TG: lower TG
[3]; serum, 10 weeks
  circulating TG: no difference
Cleaved caspase3
  Caspase 3, marker of apoptosis: no change
VDAC1
  VDAC1 expression (HFD-induced decrease): substantial reversal
IL-6
  IL-6 protein secreted by cultured human hepatocytes: reduced
Total cellular NAD
  total cellular NAD in liver: substantial increase
Sirt3 mRNA
  Sirt3 mRNA in mouse liver (effect of HFD): almost completely reversed
